This note sets out measurements from ChEMBL document CHEMBL6127093, “The evolution of small-molecule Akt inhibitors from hit to clinical candidate” (Eur J Med Chem, 2024).

The term IC50 denotes the concentration that inhibits the measured activity by half. The term clearance denotes a measure of how efficiently the substance is removed, as volume per time. A lower clearance goes with a low capacity for elimination. For orientation: solubility means the concentration that dissolves in the medium under given conditions. Read a high solubility as a readily soluble substance. As usually defined, the half-life is the time in which the quantity being followed falls by half. By bioavailability is commonly meant the share of a dose that reaches the circulation, judged against a reference dose that is usually intravenous.

Series [1] can be described thus: Antiproliferative activity against human 95-D cells assessed as reduction in cell viability incubated for 24 hrs by MTT assay. It is filed as functional, cell-based. A general note: Tetrazolium assays rely on reduction of a dye to a coloured formazan, in cell work by metabolically active cells.
The next series deals with KOSC-2. In words: Antiproliferative activity against human KOSC-2 cells assessed as reduction in cell viability incubated for 24 hrs by MTT assay. The following applies: KOSC-2, 24 h. It is filed as functional, cell-based.
Series [2] is described as follows: Antiproliferative activity against human KHOS-240S cells assessed as reduction in cell viability incubated for 24 hrs by MTT assay. It is filed as functional, cell-based.
A short description of series [3]: in vivo. The conditions noted are these: mouse.
Series [4] is described as follows: in vivo. The following applies: rat.
Series [5] can be described thus: Metabolic stability in mouse hepatocyte assessed as intrinsic clearance. The following applies: hepatocytes. It is filed as ADME, cell-based.
A short description of series [6]: Metabolic stability in rat hepatocyte assessed as intrinsic clearance. It is filed as ADME, cell-based. The following applies: hepatocytes.
Series [7] can be described thus: Clearance in Beagle dog at 0.5 mg/kg, iv. It is filed as ADME, organism-based, Canis lupus familiaris. The conditions noted are these: in vivo.
The nature of series [8]: Volume of distribution at steady state in mouse at 5 mg/kg, iv. It is filed as ADME, organism-based. The conditions noted are these: in vivo, read-out: Vdss.
Series [9] in a line: Volume of distribution at steady state in rat at 1 mg/kg, iv. It is filed as ADME, organism-based. The conditions noted are these: in vivo, read-out: Vdss.
Series [10] can be described thus: Volume of distribution at steady state in dog at 1 mg/kg, iv. It is filed as ADME, organism-based, Canis lupus familiaris. The conditions noted are these: in vivo, read-out: Vdss.
Series [11] in a line: Aqueous solubility of compound at pH 7.4. It counts as physicochemical. The following applies: buffer.
A short description of series [12]: Half life in Sprague-Dawley rat at 2 mg/kg, iv by LC-MS/MS analysis. It counts as ADME, organism-based. The following applies: in vivo.
A short description of series [13]: Oral bioavailability in CD-1 mouse at 5 mg/kg measured for 24 hrs by LC-MS/MS analysis. It counts as ADME, organism-based. The following applies: in vivo.
Series [14] in a line: Microsomal stability in human liver microsomes assessed as half life. It counts as ADME, Microsome.
Series [15] has as its system PC-3. In words: Antitumor activity against human PC-3 cells xenografted in mouse assessed as inhibition of tumor growth at 50 mg/kg, po administered for 15 days relative to control. It is filed as functional. The following applies: PC-3, 360 h, time 15 day, read-out: TGI. In general terms: In xenograft studies the graft and the host belong to different species.
Series [16] relates to PC-3. In words: Antitumor activity against human PC-3 cells xenografted in CD-1 mouse assessed as tumor growth inhibition at 100 mg/kg, po bid administration relative to control. It is filed as functional. The conditions noted are these: read-out: TGI.

Structures are written as SMILES. Converted amounts (≈) assume the structure as drawn.

Consider `NC1(C(=O)N[C@@H](CCO)c2ccc(Cl)cc2)CCN(c2ncnc3[nH]ccc23)CC1` [CAPIVASERTIB], for which the concentration for half-maximal inhibition (IC50) in [1] is 2320 nM; in the series with KOSC-2, 40.4 µM; in series [2], 40.4 µM. The clearance in the series “in vivo [3]” worked out at 86 mL/min/kg; in “in vivo [4]”, 37 mL/min/kg.

On to `NC1(C(=O)NCc2ccc(Cl)cc2)CCN(c2ncnc3[nH]ccc23)CC1`, for which the CLH is 10 µL/min in [5] and 19 µL/min in [6]. The clearance in [7] was found to be 2 mL/min/kg. In addition, the Vd in [8] came to 2.8 L/kg; in [9], 3.1 L/kg; in series [10] it was 2 L/kg.

In [11], `NC(=O)c1cccc2c(N[C@H](CN3CCC3)c3ccc(Cl)c(C(F)(F)F)c3)ncnc12` [RUPITASERTIB] returned a solubility of 17 µg/mL (≈ 37.8 µM). This molecule also had a half-life in [12] of 234 min. Moreover, the bioavailability in series [13] stood at 10%.

On to `Nc1ncccc1-c1nc2ccc(-c3ccccc3)nc2n1-c1ccc(C2(N)CCC2)cc1` [MIRANSERTIB], for which, in [14], the half-life worked out at 55 min.

Regarding `Cn1nccc1-c1ccc(C(=O)N[C@@H]2CNCC[C@H]2c2ccc(F)c(F)c2)c(F)c1`, the IC50 in [1] stood at 1030 nM; in the series with KOSC-2, 7.47 µM; in series [2], 7.47 µM.

Take `Cc1c(NCCN2CCCC2)cc(C(=O)CCC(F)(F)F)cc1N1CCN(c2ncnc3[nH]nc(Br)c23)CC1` [XL-418]: in the series with PC-3 [15], the inhibition in vivo at 50 mg/kg was 52%. In addition, the inhibition in vivo at 100 mg/kg with PC-3 [16] stood at 90%.
